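Five compound concentrations were applied to cells in 96-well plates for 48 hours; endpoints were derived by simple linear interpolation of the resulting dose-response curve. GI50 is the concentration that inhibits growth by half.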 Active and inactive are the calls of the source. No stated cut-off is given here; in the data, active = GI50 up to about 1.1 µM and inactive = higher.
Tests used:
Assay in all cases: growth of human tumour cells (NCI), 48 h
[1] = test system: HOP-92
[2] = test system: SK-OV-3
[3] = test system: SNB-75
[4] = test system: NCI-H226
[5] = test system: RXF 393
[6] = test system: Malme-3M
[7] = test system: SNB-19
[8] = test system: SK-MEL-28
[9] = test system: CCRF-CEM
[10] = test system: U-251
[11] = test system: OVCAR-8
[12] = test system: OVCAR-4
[13] = test system: SK-MEL-5
[14] = test system: IGROV-1
[15] = test system: NCI-H23
[16] = test system: SF-268
[17] = test system: OVCAR-3
[18] = test system: K562
[19] = test system: RPMI-8226

Measured: GI50

C/C(=N\N(C)C)C(CN(C)C)C(c1ccccc1)c1c(O)c2ccccc2oc1=O (configuration not stated)
inactive: [1] 70.5 µM | [2] > 100 µM | [3] 30.3 µM | [4] > 100 µM | [5] > 100 µM | [6] > 100 µM | [7] > 100 µM | [8] > 100 µM | [9] > 100 µM | [10] > 100 µM | [11] > 100 µM | [12] > 100 µM | [13] > 100 µM | [14] > 100 µM | [15] > 100 µM | [16] > 100 µM | [17] > 100 µM | [18] > 100 µM | [19] > 100 µM

CC(=O)Oc1c2c(c(O)c3ccccc13)C(n1cnc3c(ncn3C3OC(CO)C4OC(C)(C)OC43)c1=N)CCC2 (configuration not stated)
inactive: [1] 22.6 µM | [2] 19 µM | [3] 17.5 µM | [4] 23.3 µM | [5] 18.3 µM | [6] 11.2 µM | [7] 16 µM | [8] 17.5 µM | [9] 5.24 µM | [10] 18.9 µM | [11] 11.2 µM | [13] 12.1 µM | [14] 20.2 µM | [15] 16.8 µM | [16] 16.4 µM | [17] 14.5 µM | [18] 6.84 µM | [19] 3.1 µM

COC(=O)C(=O)C(CC(=O)Nc1cccc(C(F)(F)F)c1)C(=O)OC (configuration not stated)
inactive: [1] > 100 µM | [2] > 100 µM | [3] > 100 µM | [4] > 100 µM | [5] > 100 µM | [6] > 100 µM | [7] > 100 µM | [8] > 100 µM | [9] > 100 µM | [10] > 100 µM | [11] > 100 µM | [12] > 100 µM | [13] > 100 µM | [14] > 100 µM | [15] > 100 µM | [16] > 100 µM | [18] > 100 µM | [19] > 100 µM

CCSCN(C)c1nc(N(C)C)nc(N(C)C)n1
inactive: [1] 49.2 µM | [2] > 100 µM | [3] 59 µM | [5] 14.2 µM | [6] 34.3 µM | [7] 78 µM | [8] 56.4 µM | [9] 48.1 µM | [10] 54.2 µM | [11] 81.5 µM | [12] 72.3 µM | [13] 39.9 µM | [14] 78.7 µM | [15] 33.6 µM | [16] > 100 µM | [17] 38.3 µM | [18] 46.8 µM | [19] 49.1 µM

COc1ccc2ccc([Se]c3ccc4ccc(OC)cc4c3)cc2c1
inactive: [1] > 100 µM | [2] > 100 µM | [3] 26.6 µM | [4] 63.1 µM | [5] 70 µM | [6] > 100 µM | [7] 23.3 µM | [8] > 100 µM | [9] 49.8 µM | [10] 29.9 µM | [11] 21.8 µM | [12] 20.6 µM | [13] > 100 µM | [14] > 100 µM | [15] > 100 µM | [16] 61.1 µM | [17] > 100 µM | [18] > 100 µM | [19] 49.9 µM

O=C(Cc1nc2ccccc2o1)C(=O)Nc1ccccc1C(F)(F)F
inactive: [1] > 100 µM | [2] > 100 µM | [3] 63.1 µM | [4] > 100 µM | [5] > 100 µM | [6] > 100 µM | [7] > 100 µM | [9] > 100 µM | [10] > 100 µM | [11] > 100 µM | [12] > 100 µM | [13] > 100 µM | [14] > 100 µM | [15] > 100 µM | [16] > 100 µM | [17] > 100 µM | [18] > 100 µM | [19] > 100 µM

CC(=O)OCC1(C)C(OC(C)=O)CCC2(C)C(CC(OC(C)=O)C3=CCOC3=O)C(O)(CO)CCC12 (configuration not stated)
inactive: [1] > 100 µM | [2] > 100 µM | [3] > 100 µM | [4] > 100 µM | [5] > 100 µM | [6] > 100 µM | [7] > 100 µM | [8] > 100 µM | [9] 53.1 µM | [10] > 100 µM | [11] > 100 µM | [12] > 100 µM | [13] > 100 µM | [14] > 100 µM | [15] > 100 µM | [16] > 100 µM | [17] > 100 µM | [18] > 100 µM | [19] > 100 µM

Nc1nc(CC2(O)CCCCC2)cc(-c2ccccc2)n1
inactive: [1] > 44.9 µM | [2] > 100 µM | [3] > 47.9 µM | [4] > 44.8 µM | [5] > 40.3 µM | [6] > 10 µM | [7] 31.2 µM | [8] > 63.2 µM | [9] 27.5 µM | [10] 39 µM | [11] > 50.2 µM | [12] 35.1 µM | [13] 24.9 µM | [14] 43 µM | [15] > 43 µM | [16] > 64.4 µM | [17] 25.6 µM | [18] 16.6 µM | [19] 23.6 µM

CCc1cccc(C)c1NC(=O)CCc1nnc2s/c(=C\c3cccc4ccccc34)c(=O)n12
inactive: [1] > 100 µM | [2] > 100 µM | [3] > 100 µM | [4] > 100 µM | [5] > 100 µM | [6] > 100 µM | [7] > 100 µM | [8] > 100 µM | [9] 92.9 µM | [10] > 100 µM | [11] > 100 µM | [12] > 100 µM | [13] > 100 µM | [14] > 100 µM | [15] > 100 µM | [16] > 100 µM | [17] 78 µM | [18] 30.3 µM | [19] 23.8 µM

O=C(CCN1CCCCC1CO)Nc1ccc2c(c1)C(=O)c1ccc(NC(=O)CCN3CCCCC3CO)cc1C2=O (configuration not stated)
inactive: [1] 15.5 µM | [2] 13.7 µM | [3] 4.28 µM | [4] 18.8 µM | [5] 2 µM | [6] 5.27 µM | [7] 11 µM | [8] 12.9 µM | [9] 3.61 µM | [10] 8.13 µM | [11] 6.73 µM | [12] 11.5 µM | [13] 15.4 µM | [14] 9.68 µM | [15] 17 µM | [16] 10 µM | [18] 6.25 µM | [19] 13.2 µM

CCC(CO)Nc1nc2c(c(=O)n(C)c(=O)n2C)n1CCO (configuration not stated)
inactive: [1] > 100 µM | [2] > 100 µM | [3] 48.9 µM | [4] > 100 µM | [5] > 100 µM | [6] > 100 µM | [7] > 100 µM | [8] > 100 µM | [10] > 100 µM | [11] > 100 µM | [13] > 100 µM | [14] > 100 µM | [15] > 100 µM | [16] > 100 µM | [17] > 100 µM | [18] > 100 µM | [19] > 100 µM

O=C(Nc1cccc([N+](=O)[O-])c1)C(=O)C(C(=O)c1ccccc1-c1ccccc1)C1OC(=O)c2ccccc21 (configuration not stated)
inactive: [1] 13.4 µM | [2] 32.5 µM | [3] 22.9 µM | [4] 5.96 µM | [5] 13.3 µM | [6] 13.6 µM | [8] 23.5 µM | [9] 22.9 µM | [10] 13.4 µM | [11] 22.3 µM | [13] 16.2 µM | [14] 30.8 µM | [15] 14.7 µM | [16] 22.2 µM | [17] 15.4 µM | [18] 28 µM | [19] 13.4 µM

CCOC(=O)c1cc2c(OC(C)=O)ccc(OC(C)=O)c2s1
inactive: [1] 1.44 µM | [2] 9.4 µM | [3] 2.07 µM | [4] 12.9 µM | [5] 1.56 µM | [6] 1.93 µM | [7] 7.03 µM | [8] 2.15 µM | [9] 2.16 µM | [10] 2.97 µM | [11] 1.66 µM | [12] 4.75 µM | [13] 2.29 µM | [14] 1.76 µM | [15] 1.99 µM | [16] 1.79 µM | [17] 1.61 µM | [19] 2.31 µM

CC1=CC(/C=C(\C)CCCc2ccoc2)C2(OC(=O)C(C)=C2O)[C@H]2C1CC[C@@H]2C (some centres not stated)
inactive: [1] 17.9 µM | [2] 26.2 µM | [3] 33.7 µM | [4] 22.7 µM | [5] 18.3 µM | [6] 26.6 µM | [7] 11.9 µM | [8] 27.6 µM | [9] 22.1 µM | [10] 25 µM | [11] 28.6 µM | [13] 20.3 µM | [14] 32.3 µM | [15] 20.5 µM | [17] 21.4 µM | [18] 24.7 µM | [19] 13.3 µM

COc1cc2c(c3c1C=CCO3)C(=O)c1ccccc1C2=O
inactive: [1] > 100 µM | [2] > 100 µM | [3] 51.1 µM | [4] 32.2 µM | [5] > 100 µM | [6] > 100 µM | [7] 45.3 µM | [8] > 100 µM | [9] 22 µM | [10] 30.8 µM | [11] 40.8 µM | [13] 24.7 µM | [14] 26.8 µM | [15] > 100 µM | [16] 47.6 µM | [17] 42.8 µM | [18] 32.3 µM | [19] 32.8 µM
